Paper PMC2546444, “Anti-Plasmodium Activity of Angiotensin II and Related Synthetic Peptides” (PLoS ONE, 2008)
Positions of bridges follow the written chain, without caps; N, C: chain ends. Residues, ends and D or L forms follow the SMILES beside them. No end group written: not given here.

Tests used:
[1] = system: fresh human erythrocytes; experiment: Hemolytic activity; assay type: cell-based; conditions: peptide 0.19 to 100 μM; 0.4% human erythrocytes in PBS pH 7.4, 1 h at 37°C, read at 405 nm; triplicate
Description: Hemolytic activity was evaluated on fresh human erythrocytes washed three times with phosphate-buffered saline (PBS: 10 mM Na2HPO4, 1.8 mM K2-HPO4, pH 7.4, containing 140 mM NaCl and 2.7 mM KCl) ). Serial dilutions of the peptides with concentrations varying between 0.19–100 μM were incubated in Eppendorf tubes with a suspension of 0.4% erythrocytes in PBS. After 1 h at 37°C, the test tubes were centrifuged at 300g for 5 min at 5°C. Fifty microliter aliquots of the supernatants were transferred to 96-well plates and hemolysis was monitored at 405 nm using a microtiter plate reader. Negative and positive controls were prepared in PBS and in PBS supplemented with 0.1% SDS, respectively. Ang ll of the experiments was performed in triplicate.

[2] = system: Ae.aegypti mosquitoes; experiment: Survival of mosquitoes injected with ang II; assay type: in vivo, Aedes aegypti; conditions: 0.5 μl ang II at 10-200 μM intrathoracically; chi-square test p>0.5; mean of three independent experiments
Description: Supplementary file pone.0003296.s001.tif: Figure S1 Survival of mosquitoes injected with different ang II concentrations. Ae.aegypti mosquitoes (10 females) were injected intrathoracically (0.5 μl) of ang II at 10 μM, 20 μM, 50 μM, 60 μM, 100 μM and 200 μM. After 24 hour the survival of mosquitoes was scored. […] Results are the mean of three independent experiments (20 mosquitoes/group), and bars represent standard errors of the mean. (0.18 MB TIF) Click here for additional data file.

[3] = 25% pooled non-heat inactivated human serum in PBS, 37°C; 20 μl of 10 mg/ml stock in 1 ml; sampling 0-120 min; LC/ESI-MS peak area; triplicates; data not shown

| Compound | Hemolytic Activity [1] | time to degradation in serum | effect on mosquito survival after 24 hour [2] | time within which the peptide was degraded in serum [3] |
| --- | --- | --- | --- | --- |
| CC[C@H](C)[C@H](NC(=O)[C@H](Cc1ccc(O)cc1)NC(=O)[C@@H](NC(=O)[C@H](CCCNC(=N)N)NC(=O)[C@@H]1CCCCNC(=O)C[C@H](N)C(=O)N[C@@H](CC(=O)O)C(=O)N1)C(C)C)C(=O)N[C@@H](Cc1c[nH]cn1)C(=O)N1CCC[C@H]1C(=O)N[C@@H](Cc1ccccc1)C(=O)O [VC1, Cyclo(0-1a)[Asp^0, endo-(Lys^1a)]-All] (H-DDKRVYIHPF-OH; lactam 1-3) | neg | < 30 min | – | – |
| CC[C@H](C)[C@H](NC(=O)[C@H](Cc1ccc(O)cc1)NC(=O)[C@@H](NC(=O)[C@@H]1CCCCNC(=O)C[C@H](NC(=O)[C@@H](N)CC(=O)O)C(=O)N[C@@H](CCCNC(=N)N)C(=O)N1)C(C)C)C(=O)N[C@@H](Cc1c[nH]cn1)C(=O)N1CCC[C@H]1C(=O)N[C@@H](Cc1ccccc1)C(=O)O [VC3, Cyclo(1a-2a)[endo-(Asp^1a), endo-(Lys^2a)]-All] (H-DDRKVYIHPF-OH; lactam 2-4) | neg | < 30 min | – | – |
| CC[C@H](C)[C@H](NC(=O)[C@H](Cc1ccc(O)cc1)NC(=O)[C@@H]1CCCCNC(=O)C[C@H](NC(=O)[C@H](CCCNC(=N)N)NC(=O)[C@@H](N)CC(=O)O)C(=O)N[C@@H](C(C)C)C(=O)N1)C(=O)N[C@@H](Cc1c[nH]cn1)C(=O)N1CCC[C@H]1C(=O)N[C@@H](Cc1ccccc1)C(=O)O [VC5, Cyclo(2a-3a)[endo-(Asp^2a), endo-(Lys^3a)]-All] (H-DRDVKYIHPF-OH; lactam 3-5) | neg | < 30 min | – | – |
| CC[C@H](C)[C@H](NC(=O)[C@H](Cc1ccc(O)cc1)NC(=O)[C@@H](NC(=O)[C@H](CCCNC(=N)N)NC(=O)[C@@H](N)CC(=O)O)C(C)C)C(=O)N[C@@H](Cc1cnc[nH]1)C(=O)N1CCC[C@H]1C(=O)N[C@@H](Cc1ccccc1)C(=O)O [ang II, Angiotensin II] | neg | – | no significant effects | ≤ 30 min |
| DDKRVYIHPF [VC2, [Asp^0, endo-(Lys^1a)]-All] | neg | < 30 min | – | – |
| DDRKVYIHPF [VC4, [endo-(Asp^1a), endo-(Lys^2a)]-All] | neg | < 30 min | – | – |
| DRDVKYIHPF [VC6, [endo-(Asp^2a), endo-(Lys^3a)]-All] | neg | < 30 min | – | – |
